In patent US20240116885A1, “BENZOTHIAZOLE AND QUINOLINE DERIVATIVES AND THEIR USE” (Shanghai Yao Yuan Biotechnology Co., Ltd., priority 2020, published 2024) one finds IC50 data, which are given here for 30 compounds.

Assay [1] deals with ALPK1-dependent NFκB reporter gene activation. In words: NFκB gene reporter alkaline phosphatase assay in HEK293 G9 cells. The assay is classed as cell-based. As to conditions: Homo sapiens; HEK293 G9 cells stimulated with D-glycero-D-manno-6-fluoro-heptose-1β-S-ADP. As for the experimental part:
An alkaline phosphatase reporter assay system was used to measure inhibition of ALPK1-dependent NFκB reporter gene activation. Briefly, HEK293 cells stably expressing an NF-kB reporter (referred to herein as “G9 cells”) were maintained in DMEM as described above. For the assay, cells were seeded into 96-well plates at a density of 10,000 cells/well in Freestyle™ 293 Expression Medium (ThermoFisher), and allowed to attach overnight. Cells were pretreated with serially diluted compounds for 30 min and then stimulated with D-glycero-D-manno-6-fluoro-heptose-1β-S-ADP. […] NFkB gene activation was detected using the chromogenic substrate, para-nitrophenyl phosphate (pNPP) according to the manufacturer's protocols (pNPP Phosphatase Assay, Beyotime Biotechnology).

Another assay has as its target ALPK1 (Homo sapiens (Human), UniProt Q96QP1). Briefly: ALPK1 in vitro kinase assay (HTRF, TIFA phosphorylation). The assay is classed as biochemical. To be noted: ADP-Heptose activated ALPK1. The procedure: ALPK1 kinase activity was measured in an in vitro assay using ADP-Heptose as the ALPK1 ligand and activator of its kinase activity and TIFA protein as the ALPK1 phosphorylation substrate. Since phosphorylated TIFA proteins oligomerize, Homogeneous Time-Resolved Fluorescence (HTRF) was used to measure protein:protein interaction between HA-tagged TIFA proteins as an indicator of TIFA phosphorylation.
In brief, dose-response studies were performed with HEK293 cells cultured in Dulbecco's Modified Eagle Medium (DMEM) supplemented 10% fetal bovine serum (FBS, Hyclone™) containing antibiotics (pen/strep, G418) in 384-well assay plates. Each well contained 0.1 mg TIFA, ALPK1 (2 nM final concentration in reaction mixture) and kinase buffer (100 mM of HEPES pH 7.4, 4 mM DTT, 40 mM MgCl2, 20 mM of β-Glycerol phosphate disodium salt, 0.4 mM of Na3VO4, 0.16 mg/mL). Titrations of the test compounds were prepared in dimethylsulphoxide (DMSO). The reaction was initiated by addition of ATP and ADP-Heptose.
For HTRF, samples were incubated with a Tb cryptate-labeled anti-HA antibody for capturing HA-tagged proteins according to the manufacturer's instructions (PerkinElmer™, CisBio™) and the fluorescence signal was quantified (Tecan Infinite F NANO+). HTRF signals were calculated as the HTRF ratio (ratio of fluorescence measured at 665 nm and 620 nm)×104 (thereby using the signal at 620 nm as an internal standard).
IC50 values were determined using 3- or 4-parameter logistic equation using GraphPad Prism version 6.00. The reference compound, A027, was used as a positive control for each plate.
Background: TR-FRET usually uses a lanthanide donor and a delayed reading to cut background.

Chain of ALPK1 (Q96QP1 whole entry): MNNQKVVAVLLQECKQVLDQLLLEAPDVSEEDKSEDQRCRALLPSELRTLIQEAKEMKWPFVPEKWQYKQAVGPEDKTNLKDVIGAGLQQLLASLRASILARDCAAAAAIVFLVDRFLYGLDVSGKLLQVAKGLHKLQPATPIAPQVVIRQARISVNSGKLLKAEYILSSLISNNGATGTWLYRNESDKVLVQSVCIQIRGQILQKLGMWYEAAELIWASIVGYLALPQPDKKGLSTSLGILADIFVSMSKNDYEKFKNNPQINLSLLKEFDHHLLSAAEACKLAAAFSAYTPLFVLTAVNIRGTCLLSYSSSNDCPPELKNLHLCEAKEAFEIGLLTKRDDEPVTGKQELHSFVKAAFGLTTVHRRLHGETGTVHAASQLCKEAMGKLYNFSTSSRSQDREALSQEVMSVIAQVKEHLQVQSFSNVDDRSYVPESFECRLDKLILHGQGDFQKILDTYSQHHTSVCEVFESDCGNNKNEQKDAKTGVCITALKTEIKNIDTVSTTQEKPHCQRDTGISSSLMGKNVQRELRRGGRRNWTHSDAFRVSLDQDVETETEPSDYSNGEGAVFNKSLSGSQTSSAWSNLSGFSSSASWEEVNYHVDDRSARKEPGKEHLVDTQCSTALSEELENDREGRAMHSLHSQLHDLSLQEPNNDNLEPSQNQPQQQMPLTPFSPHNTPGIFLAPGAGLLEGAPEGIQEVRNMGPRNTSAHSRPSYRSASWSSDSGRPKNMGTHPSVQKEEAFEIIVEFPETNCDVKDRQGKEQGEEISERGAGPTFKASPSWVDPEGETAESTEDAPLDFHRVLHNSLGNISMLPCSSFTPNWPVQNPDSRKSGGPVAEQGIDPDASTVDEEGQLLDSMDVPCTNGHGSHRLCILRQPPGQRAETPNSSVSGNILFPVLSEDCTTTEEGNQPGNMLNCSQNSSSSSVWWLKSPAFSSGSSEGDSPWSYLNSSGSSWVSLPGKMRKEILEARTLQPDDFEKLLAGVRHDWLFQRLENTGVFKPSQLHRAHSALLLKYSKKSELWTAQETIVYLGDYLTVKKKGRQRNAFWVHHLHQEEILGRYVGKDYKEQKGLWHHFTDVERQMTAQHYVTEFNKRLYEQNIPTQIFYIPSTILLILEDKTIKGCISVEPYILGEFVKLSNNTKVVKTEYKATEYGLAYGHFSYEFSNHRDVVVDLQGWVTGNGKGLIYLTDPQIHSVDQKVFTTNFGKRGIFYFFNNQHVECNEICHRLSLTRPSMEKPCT

In the case of `Cc1cc(Cl)cc2sc(NC(=O)c3c(F)cc(N4CCNCC4)cc3F)nc12` [Compound T038, N-(6-chloro-4-methylbenzo[d]thiazol-2-yl)-2,6-difluoro-4-(piperazin-1-yl)benzamide], the IC50 (commonly the concentration that gives 50% inhibition) was 9980 nM in assay [1] and 255 nM at ALPK1.
For `COc1cccc2ccc(NC(=O)c3c(F)cc(N4CCN(C)CC4)cc3F)nc12` [Compound Q002, 2,6-difluoro-N-(8-methoxyquinolin-2-yl)-4-(4-methylpiperazin-1-yl)benzamide] the same measures were 2300 nM and 157 nM.
Consider `COc1cccc2sc(NC(=O)c3c(F)cc(N4CCN(Cc5ccccc5)C(=O)C4)cc3F)nc12` [Compound T024, 4-(4-benzyl-3-oxopiperazin-1-yl)-2,6-difluoro-N-(4-methoxybenzo[d]thiazol-2-yl)benzamide], for which the IC50 is 1150 nM in assay [1] and 321 nM against ALPK1.
For the compound `COc1cccc2sc(NC(=O)c3c(F)cc(-c4cccc(C(=O)O)c4)cc3F)nc12` [Compound T003, 3′,5′-difluoro-4′-((4-methoxybenzo[d]thiazol-2-yl)carbamoyl)-[1,1′-biphenyl]-3-carboxylic acid], the figures for the half-inhibitory concentration (IC50) (in assay [1]; against ALPK1) were 1490 nM and 159 nM, respectively.
Regarding `COc1cccc2sc(NC(=O)c3c(F)cc(N4CCC(N)C4)cc3F)nc12` (centres unmarked) [Compound T026, 4-(3-aminopyrrolidin-1-yl)-2,6-difluoro-N-(4-methoxybenzo[d]thiazol-2-yl)benzamide], the IC50 in assay [1] came to 2380 nM; against ALPK1, 125 nM.
Taken in the same sequence, the figures for `COc1cc(F)cc2ccc(NC(=O)c3c(F)cc(N4CCNCC4)cc3F)nc12` [Compound Q007, 2,6-difluoro-N-(6-fluoro-8-methoxyquinolin-2-yl)-4-(piperazin-1-yl)benzamide] were 6780 nM and 176 nM.
Take `C#Cc1cccc2sc(NC(=O)c3c(F)cc(N4CCN(Cc5ccc(F)cc5)CC4)cc3F)nc12` [Compound T065, N-(4-ethynylbenzo[d]thiazol-2-yl)-2,6-difluoro-4-(4-(4-fluorobenzyl)piperazin-1-yl)benzamide]: the IC50 is 6580 nM in assay [1] and 182 nM on ALPK1.
On to `CC(C)Oc1cccc2sc(NC(=O)c3c(F)cc(N4CCNCC4)cc3F)nc12` [Compound T056, 2,6-difluoro-N-(4-isopropoxybenzo[d]thiazol-2-yl)-4-(piperazin-1-yl)benzamide], for which the IC50 in assay [1] was determined as 7400 nM.
Consider `O=C(Nc1nc2c(Br)cccc2s1)c1c(F)cccc1F` [Compound T009, N-(4-bromobenzo[d]thiazol-2-yl)-2,6-difluorobenzamide], for which the IC50 in assay [1] came to 5860 nM; against ALPK1 it was 415 nM.
On to `CN1CCN(c2cc(F)c(C(=O)Nc3nc4c(Br)cccc4s3)c(F)c2)CC1` [Compound T044, N-(4-bromobenzo[d]thiazol-2-yl)-2,6-difluoro-4-(4-methylpiperazin-1-yl)benzamide], for which the half-maximal inhibitory concentration (IC50) was 1090 nM in assay [1] and 13 nM on ALPK1.
Compound `O=C(Nc1nc2ccccc2s1)c1c(F)cc(N2CCNCC2)cc1F` [Compound T041, N-(benzo[d]thiazol-2-yl)-2,6-difluoro-4-(piperazin-1-yl)benzamide] registered a concentration for half-maximal inhibition (IC50) in assay [1] of 3960 nM.
The same measure, in the same setting: with `CCOc1cccc2sc(NC(=O)c3c(F)cc(N4CCNCC4)cc3F)nc12` [Compound T057, N-(4-ethoxybenzo[d]thiazol-2-yl)-2,6-difluoro-4-(piperazin-1-yl)benzamide] the figure was 8700 nM.
For `C#Cc1cccc2sc(NC(=O)c3c(F)cc(-n4ccnc4)cc3F)nc12` [Compound T066, N-(4-ethynylbenzo[d]thiazol-2-yl)-2,6-difluoro-4-(1H-imidazol-1-yl)benzamide], the IC50 in assay [1] was 1560 nM; on ALPK1, 367 nM.
For `O=C(Nc1nc2c(Br)cccc2s1)c1c(F)cc(N2CCNC(CO)C2)cc1F` (centres unmarked) [Compound T033, N-(4-bromobenzo[d]thiazol-2-yl)-2,6-difluoro-4-(3-(hydroxymethyl)piperazin-1-yl)benzamide] the same measures were 1330 nM and 38 nM.
Consider `C#Cc1cccc2sc(NC(=O)c3c(F)cc(N4CC[C@@H](N)C4)cc3F)nc12` [Compound T053, (R)-4-(3-aminopyrrolidin-1-yl)-N-(4-ethynylbenzo[d]thiazol-2-yl)-2,6-difluorobenzamide], for which the 50% inhibitory concentration (IC50) stood at 890 nM in assay [1] and 83 nM against ALPK1.
Turning to `COc1cccc2ccc(NC(=O)c3c(F)cc(N4CCNCC4)cc3F)nc12` [Compound Q001, 2,6-difluoro-N-(8-methoxyquinolin-2-yl)-4-(piperazin-1-yl)benzamide], the half-maximal inhibitory concentration (IC50) was 1240 nM in assay [1] and 45 nM at ALPK1.
Consider `COC(=O)C1CCN(c2cc(F)c(C(=O)Nc3nc4c(OC)cccc4s3)c(F)c2)CC1` [Compound T011, methyl 1-(3,5-difluoro-4-((4-methoxybenzo[d]thiazol-2-yl)carbamoyl)phenyl)piperidine-4-carboxylate], for which the results for the IC50 (in assay [1]; against ALPK1) were 6650 nM and 420 nM, respectively.
Taken in the same sequence, the figures for `COc1cccc2sc(NC(=O)c3c(F)cc(NCCN(C)C)cc3F)nc12` [Compound T013, 4-((2-(dimethylamino)ethyl)amino)-2,6-difluoro-N-(4-methoxybenzo[d]thiazol-2-yl)benzamide] were 5220 nM and 507 nM.
Take `C#Cc1cccc2sc(NC(=O)c3c(F)cc(N4CCN(C(N)=O)CC4)cc3F)nc12` [Compound T055, 4-(4-((4-ethynylbenzo[d]thiazol-2-yl)carbamoyl)-3,5-difluorophenyl)piperazine-1-carboxamide]: the IC50 in assay [1] stood at 2150 nM; against ALPK1 it was 126 nM.
On to `C#Cc1cccc2sc(NC(=O)c3c(F)cc(N4CCNCC4C)cc3F)nc12` (centres unmarked) [Compound T059, N-(4-ethynylbenzo[d]thiazol-2-yl)-2,6-difluoro-4-(2-methylpiperazin-1-yl)benzamide], for which the results for the half-maximal inhibitory concentration (IC50) (in assay [1]; against ALPK1) were 550 nM and 43 nM, respectively.
Regarding `C#Cc1cccc2sc(NC(=O)c3c(F)cc(N4CCOCC4)cc3F)nc12` [Compound T063, N-(4-ethynylbenzo[d]thiazol-2-yl)-2,6-difluoro-4-morpholinobenzamide], the IC50 in assay [1] is 1280 nM; on ALPK1 it was 165 nM.
Regarding `COc1cccc2sc(NC(=O)c3c(C)cc(N4CCNCC4)cc3F)nc12` [Compound T002, 2-fluoro-N-(4-methoxybenzo[d]thiazol-2-yl)-6-methyl-4-(piperazin-1-yl)benzamide], the IC50 in assay [1] came out at 2460 nM; on ALPK1, 176 nM.
Consider `COc1cccc2sc(NC(=O)c3c(F)cc(N4CCC(O)CC4)cc3F)nc12` [Compound T028, 2,6-difluoro-4-(4-hydroxypiperidin-1-yl)-N-(4-methoxybenzo[d]thiazol-2-yl)benzamide], for which the IC50 is 1490 nM in assay [1] and 248 nM against ALPK1.
As to `COc1cccc2sc(NC(=O)c3c(F)cc(N4CCNCC4C)cc3F)nc12` (centres unmarked) [Compound T014, 2,6-difluoro-N-(4-methoxybenzo[d]thiazol-2-yl)-4-(2-methylpiperazin-1-yl)benzamide], in assay [1], the IC50 came to 1310 nM.
In the case of `COc1cccc2sc(NC(=O)c3c(F)cc(N4CCN(CCO)CC4)cc3F)nc12` [Compound T025, 2,6-difluoro-4-(4-(2-hydroxyethyl)piperazin-1-yl)-N-(4-methoxybenzo[d]thiazol-2-yl)benzamide], the half-maximal inhibitory concentration (IC50) in assay [1] was 2920 nM; against ALPK1 it was 148 nM.
As to `COc1cccc2sc(NC(=O)c3c(F)cc(N4CCNC(C)C4)cc3F)nc12` (centres unmarked) [Compound T015, 2,6-difluoro-N-(4-methoxybenzo[d]thiazol-2-yl)-4-(3-methylpiperazin-1-yl)benzamide], the figures for the half-inhibitory concentration (IC50) (in assay [1]; against ALPK1) were 4470 nM and 349 nM, respectively.
Regarding `O=C(Nc1nc2c(Br)cccc2s1)c1c(F)ccc(N2CCNCC2)c1F` [Compound T016, N-(4-bromobenzo[d]thiazol-2-yl)-2,6-difluoro-3-(piperazin-1-yl)benzamide], the 50% inhibitory concentration (IC50) in assay [1] was 2220 nM; at ALPK1 it was 47 nM.
Compound `O=C(Nc1nc2c(F)cc(F)cc2s1)c1c(F)cc(N2CCNCC2)cc1F` [Compound T035] gave a half-maximal inhibitory concentration (IC50) in assay [1] of 5020 nM.
With `COc1cccc2sc(NC(=O)c3c(F)cc(CN4CCNCC4)cc3F)nc12` [Compound T018, 2,6-difluoro-N-(4-methoxybenzo[d]thiazol-2-yl)-4-(piperazin-1-ylmethyl)benzamide], in assay [1], the IC50 came to 2460 nM.
Turning to `COc1cc(OC)c2nc(NC(=O)c3c(F)cc(N4CCNCC4)cc3F)ccc2c1` [Compound Q006, N-(6,8-dimethoxyquinolin-2-yl)-2,6-difluoro-4-(piperazin-1-yl)benzamide], in assay [1], half-maximal inhibition (IC50) required 11100 nM.
